In patent US8604202B2, “Thienopyridone derivatives as AMP-activated protein kinase (AMPK) activators” (Merck Patent GmbH, priority 2008, dated 2013):

What was measured:
ob/ob and db/db mice = details: 8 day administration; cited from earlier work
[1] = biological target: T1, AMPK protein (recombinant α1β1γ2) (Homo sapiens, UniProt Q13131+Q9Y478); experiment: AMPK enzymatic activity (Delfia, AMARA peptide); assay type: biochemical; details: compound 30 μM vs AMP 30 μM; 125 μM ATP; 30 min room temperature; ratio 90% or higher = direct activator
T1 construct: made in house; host or cells: E. coli
T1 sequence (Q13131 whole entry): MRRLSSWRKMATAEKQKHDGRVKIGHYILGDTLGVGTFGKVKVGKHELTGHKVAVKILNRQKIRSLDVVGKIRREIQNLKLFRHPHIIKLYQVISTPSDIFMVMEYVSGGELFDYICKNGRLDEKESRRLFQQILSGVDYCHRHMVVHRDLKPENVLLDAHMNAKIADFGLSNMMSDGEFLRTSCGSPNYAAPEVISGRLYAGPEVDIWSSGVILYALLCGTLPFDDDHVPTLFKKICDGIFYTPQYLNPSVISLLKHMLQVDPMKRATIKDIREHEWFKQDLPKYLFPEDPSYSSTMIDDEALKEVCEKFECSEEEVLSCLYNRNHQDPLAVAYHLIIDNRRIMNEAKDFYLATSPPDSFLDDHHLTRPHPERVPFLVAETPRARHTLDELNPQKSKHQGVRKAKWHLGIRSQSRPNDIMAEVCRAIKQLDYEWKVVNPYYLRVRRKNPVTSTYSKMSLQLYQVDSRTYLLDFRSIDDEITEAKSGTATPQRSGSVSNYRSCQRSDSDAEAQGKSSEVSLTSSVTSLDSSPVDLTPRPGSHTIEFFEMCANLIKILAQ
T1 sequence (Q9Y478 whole entry): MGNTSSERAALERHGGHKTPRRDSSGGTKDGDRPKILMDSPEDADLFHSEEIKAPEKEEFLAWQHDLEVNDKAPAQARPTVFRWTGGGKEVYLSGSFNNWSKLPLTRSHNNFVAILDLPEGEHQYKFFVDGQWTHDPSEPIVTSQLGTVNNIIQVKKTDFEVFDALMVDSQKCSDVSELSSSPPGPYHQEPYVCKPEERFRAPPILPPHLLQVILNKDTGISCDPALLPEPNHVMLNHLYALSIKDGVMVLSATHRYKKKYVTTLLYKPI
T1 sequence (Q9UGJ0 whole entry partner): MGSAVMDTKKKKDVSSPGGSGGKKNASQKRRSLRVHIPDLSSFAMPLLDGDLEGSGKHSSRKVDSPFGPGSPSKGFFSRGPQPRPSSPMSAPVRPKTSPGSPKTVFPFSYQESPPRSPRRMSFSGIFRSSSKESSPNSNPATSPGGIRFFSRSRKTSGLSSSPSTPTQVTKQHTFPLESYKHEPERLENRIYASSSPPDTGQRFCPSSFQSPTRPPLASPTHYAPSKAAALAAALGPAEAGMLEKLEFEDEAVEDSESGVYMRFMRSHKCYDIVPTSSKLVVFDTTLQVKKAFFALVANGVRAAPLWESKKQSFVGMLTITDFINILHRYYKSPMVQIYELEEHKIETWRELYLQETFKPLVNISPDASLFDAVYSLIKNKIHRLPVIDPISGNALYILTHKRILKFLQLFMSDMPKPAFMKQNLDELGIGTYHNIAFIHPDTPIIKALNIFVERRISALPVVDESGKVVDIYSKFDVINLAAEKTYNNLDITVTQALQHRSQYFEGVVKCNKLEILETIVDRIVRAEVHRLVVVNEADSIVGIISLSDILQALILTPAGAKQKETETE
Experimental: The following biological test allows the determination of the efficacy of such compounds of formula (I) onto AMPK protein (recombinant α1β1γ2).
Human recombinant AMPK enzyme was expressed in E. Coli and was reactivated in vitro by LKB1 prior to enzyme activity determination.
AMPK enzyme activities were assayed by using A Delfia technology. AMPK enzyme activities were carried out in microtiter plates (50 mM Hepes buffer, pH 7.4 with 125 μM ATP respectively) in the presence of a synthetic peptide substrate (AMARAASAAALARRR, the “AMARA” peptide) and activators in serial dilutions. Reactions were initiated by the addition of AMPK (50-100 ng). Following mixing, the plates were incubated for 30 min at room temperature. Enzyme activity was assayed by using an anti-phosphoserine antibody to measure the quantity of phosphate incorporated into the AMARAA.
Ratio between the % of control (basal activity) of compound of formula (I) at 30 μM and the % of control (basal activity) of AMP (natural substrate) at 30 μM. Compounds of formula (I) in the table II are considered as direct activator of AMPK if the ratio is 90% or higher.

H-2 Kb cells = experiment: Glucose uptake in H-2 Kb cells (in vitro cellular test); assay type: cell-based, mouse; details: Mus musculus; differentiated H-2 Kb muscle cells, 4 hours incubation, 2-deoxy-D-[3H]glucose 10 min; read-out: activity: Concentration of compound for a glucose uptake equal or higher to glucose uptake induced by insulin (170 nM)
Experimental: The following cellular test allows the determination of the effect of AMPK activators such as compounds of formula (I) onto glucose uptake in a muscle cellular model.
H-2 Kb cells derived from heterozygous H-2 Kb tsA58 transgenic mouse were grown in 24-well in plates coated with matrigel and were cultured at 33° C. for 4 days under permissive conditions, as described previously by Fryer et al. (Diabetes 49 (12): 1978, 2000).
For differentiation in muscle, cells were switched to non-permissive culture conditions (37° C. in the absence of interferon-γ). After 3 days, cells were incubated for 4 hours in DMEM 1 g/l glucose culture medium containing different concentrations of the tested molecules. Then glucose uptake was measured by incubating the cells for 10 min with radiolabelled 2-deoxy-D-[1, 2 ^3H] glucose. Glucose uptake was terminated by rapidly washing the plates 2 times with ice-cold NaCl 0.9%. The cells were then solubilized in 0.1N NaOH for 30 min. Radioactivity was determined by liquid scintillation counting.
Activity table III: Concentration of compound (1) for a glucose uptake equal or higher to glucose uptake induced by insulin (170 nM)

Row | Structure (SMILES) | activity: Ratio between the % of control (basal activity) of compound of formula (I) at 30 μM and the % of control (basal activity) of AMP at 30 μM [1] [%] | reduces blood glucose (ob/ob and db/db mice) [%] | EC (glucose uptake equal or higher to insulin 170 nM) (H-2 Kb cells) [µM]
1 | NC(=O)c1ncn([C@@H]2O[C@H](CO)[C@@H](O)[C@H]2O)c1N [AICAR, 5-aminoimidazole-4-carboxamide riboside] | – | 35 | –
2 | Cc1cccc(-c2ccc(-c3csc4[nH]c(=O)c(-c5ccccc5)c(O)c34)cc2)c1 [Compound 11, 4-hydroxy-3-(3′-methylbiphenyl-4-yl)-5-phenyl-6,7-dihydro-thieno[2,3-b]pyridin-6-one] | 150 | – | > 10
3 | CS(=O)(=O)c1ccc(-c2ccc(-c3csc4[nH]c(=O)c(-c5ccccc5)c(O)c34)cc2)cc1 [Compound 20, 4-hydroxy-3-(4′-methylsulfonylbiphenyl-4-yl)-5-phenyl-6,7-dihydro-thieno[2,3-b]pyridin-6-one] | 206 | – | > 10
4 | N#Cc1ccc(-c2c(O)c3c(-c4ccc(-c5ccccc5)cc4)csc3[nH]c2=O)cc1 [Compound 22, 3-biphenyl-4-yl-5-(4-cyanophenyl)-4-hydroxy-6,7-dihydro-thieno[2,3-b]pyridin-6-one] | 152 | – | > 10
5 | Cc1ccccc1-c1ccc(-c2csc3[nH]c(=O)c(-c4cccnc4)c(O)c23)cc1 [Compound 35, 4-hydroxy-3-(2′-methylbiphenyl-4-yl)-5-pyridin-3-yl-6,7-dihydro-thieno[2,3-b]pyridin-6-one] | 161 | – | > 10

Now from value to compound, other results behind:

Row | activity: Ratio between the % of control (basal activity) of compound of formula (I) at 30 μM and the % of control (basal activity) of AMP at 30 μM [1] [%] | Structure (SMILES) | reduces blood glucose (ob/ob and db/db mice) [%] | EC (glucose uptake equal or higher to insulin 170 nM) (H-2 Kb cells) [µM]
6 | 120 | O=c1[nH]c2scc(-c3ccc(-c4cccc(O)c4)cc3)c2c(O)c1-c1ccccc1 [Compound 9, 4-hydroxy-3-(3′-hydroxybiphenyl-4-yl)-5-phenyl-6,7-dihydro-thieno[2,3-b]pyridin-6-one] | – | > 10
7 | 156 | Cc1cccc(-c2ccc(-c3csc4[nH]c(=O)c(-c5cccnc5)c(O)c34)cc2)c1 [Compound 36, 4-hydroxy-3-(3′-methylbiphenyl-4-yl)-5-pyridin-3-yl-6,7-dihydro-thieno[2,3-b]pyridin-6-one] | – | > 10
